From US20010034357A1, “Substituted pyridine compounds useful for controlling chemical synaptic transmission” (priority 2000, published 2001)

Assays:
mouse hot plate paradigm = mouse hot plate paradigm (analgesia, latency until tenth jump); type: in vivo; settings: mice, intraperitoneal, dosed 30 minutes prior to testing, hot plate 55° C.; for Analgesic MED (μmol/kg): footnote symbols for no effect; for Analgesic MED: minimally effective dose among the doses tested
Protocol: An in vivo protocol was utilized to determine the effectiveness of nicotinic acetylcholine receptor ligands as analgesic agents in the mouse hot plate paradigm.
Separate groups of mice, (n=8/group) were utilized for each dose group. All drugs were administered by the intraperitoneal route of administration. Test drugs were dissolved in water to make a 6.2 mM stock solution. Animals were dosed with this solution (10 mL/kg body weight) for a 62 micromol/kg dose. Lower doses were administered similarly, following serial dilution of the stock solution in half-log increments. Animals were dosed 30 minutes prior to testing in the hot plate. The hot-plate utilized was an automated analgesia monitor (Model #AHP16AN, Omnitech Electronics, Inc. of Columbus, Ohio). The temperature of the hot plate was maintained at 55° C. and a cut-off time of 180 seconds was utilized. A control was run against each compound tested. Latency until the tenth jump was recorded as the dependent measure. An increase in the tenth jump latency relative to the control was considered a significant effect.

[1] = biological target: T1, neuronal nicotinic acetylcholine receptors (Rattus norvegicus, UniProt P09483+P12390); assay: [3H]-cytisine binding to neuronal nicotinic acetylcholine receptors, crude synaptic membranes from whole rat brain; settings: [3H]-CYT 1.25 nM, whole rat brain membranes, 60 minutes at 4° C.; Cheng and Prusoff correction; Table 1; read-out: Ki
T1 construct: crude synaptic membrane preparations from whole rat brain; from tissue; host or cells: whole rat brain, crude synaptic membranes
Protocol: The in vitro protocols for determination of nicotinic acetylcholine channel receptor binding potencies of ligands was determined as follows.
Binding of [^3H]-cytisine ([^3H]-CYT) to neuronal nicotinic acetylcholine receptors was accomplished using crude synaptic membrane preparations from whole rat brain (Pabreza et al., Molecular Pharmacol., 1990, 39:9). Washed membranes were stored at −80° C. prior to use. Frozen aliquots were slowly thawed and resuspended in 20 volumes of buffer (containing: 120 mM NaCl, 5 mM KCl, 2 mM MgCl2, 2 mM CaCl2 and 50 mM Tris-Cl, pH 7.4 @4° C.). After centrifuging at 20,000×g for 15 minutes, the pellets were resuspended in 30 volumes of buffer.
The test compounds were dissolved in water to make 10 mM stock solutions. Each solution was then diluted (1:100) with buffer (as above) and further taken through seven serial log dilutions to produce test solutions from 10^−5 to 10^−11 M.
Homogenate (containing 125-150 µg protein) was added to triplicate tubes containing the range of concentrations of test compound described above and [^3H]-CYT (1.25 nM) in a final volume of 500 μL. Samples were incubated for 60 minutes at 4° C., then rapidly filtered through Whatman GF/B filters presoaked in 0.5% polyethyleneimine using 3×4 mL of ice-cold buffer. The filters are counted in 4 mL of Ecolume® (ICN). Nonspecific binding was determined in the presence of 10 μM (−)-nicotine and values were expressed as a percentage of total binding. IC50 values were determined with a four-parameter non-linear regression and IC50 values were converted to K1 values using the Cheng and Prusoff correction (K1=IC50/(1+[ligand]/Kd of ligand).
Each Example number corresponds to the synthetic Examples described above. […] The lower the Ki value, the more affinity for neuronal nicotinic acetylcholine receptors.

T1 sequence (P09483 31-630): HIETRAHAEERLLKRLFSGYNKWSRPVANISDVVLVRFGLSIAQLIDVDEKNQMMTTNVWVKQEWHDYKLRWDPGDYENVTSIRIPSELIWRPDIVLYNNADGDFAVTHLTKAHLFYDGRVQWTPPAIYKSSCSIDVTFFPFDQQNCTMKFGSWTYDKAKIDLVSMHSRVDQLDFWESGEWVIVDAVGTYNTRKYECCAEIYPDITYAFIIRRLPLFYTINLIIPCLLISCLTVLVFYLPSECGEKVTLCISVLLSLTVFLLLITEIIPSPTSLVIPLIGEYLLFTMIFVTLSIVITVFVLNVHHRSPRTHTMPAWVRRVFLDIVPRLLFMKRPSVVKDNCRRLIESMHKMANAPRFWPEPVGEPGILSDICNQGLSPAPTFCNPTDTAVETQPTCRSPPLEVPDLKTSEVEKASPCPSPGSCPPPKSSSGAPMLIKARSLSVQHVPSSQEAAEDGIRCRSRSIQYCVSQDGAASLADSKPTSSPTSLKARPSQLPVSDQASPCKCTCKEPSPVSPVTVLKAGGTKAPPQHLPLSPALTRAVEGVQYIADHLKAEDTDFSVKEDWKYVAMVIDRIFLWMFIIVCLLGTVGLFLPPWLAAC
T1 sequence (P12390 25-500): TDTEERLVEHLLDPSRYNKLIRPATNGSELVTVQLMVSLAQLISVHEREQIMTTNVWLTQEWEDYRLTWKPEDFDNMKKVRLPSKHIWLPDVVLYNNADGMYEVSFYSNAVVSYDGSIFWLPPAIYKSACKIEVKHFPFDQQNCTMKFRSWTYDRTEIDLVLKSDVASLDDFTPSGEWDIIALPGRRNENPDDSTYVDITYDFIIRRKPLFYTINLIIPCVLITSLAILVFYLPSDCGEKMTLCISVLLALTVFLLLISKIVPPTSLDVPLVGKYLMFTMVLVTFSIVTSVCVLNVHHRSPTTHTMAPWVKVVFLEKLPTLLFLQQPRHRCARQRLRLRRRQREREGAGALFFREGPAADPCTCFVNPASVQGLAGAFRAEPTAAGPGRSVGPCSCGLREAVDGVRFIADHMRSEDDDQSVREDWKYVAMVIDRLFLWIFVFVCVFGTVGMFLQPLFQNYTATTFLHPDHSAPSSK

Compound	melting point [°C]	Analgesic MED (μmol/kg) (mouse hot plate paradigm)	Ki [1] [nM]	Analgesic MED (mouse hot plate paradigm) [µmol/kg]
CN(C)[C@H](COc1cnc(Cl)c(C=Cc2ccncc2)c1)Cc1ccccc1 [Example 24, 5-[(S)-2-N-dimethyl-amino-3-phenyl-1-propyloxy]-2-chloro-3-(4-vinylpyridinyl) pyridine di-p-toluenesulfonic acid]	81 to 83	* (no effect at 62)	4.63	–
CC[C@H](N)COc1ccc(Cl)nc1.Cc1ccc(S(=O)(=O)O)cc1 [Example 15, 5-[(S)-2-amino-1-butyloxy]-2-chloro pyridine p-toluenesulfonic acid]	–	* (no effect at 62)	14.7	–
Cc1cc(OC[C@@H](C)N)cnc1Cl.Cc1ccc(S(=O)(=O)O)cc1 [Example 35, 5-[(R)-2-amino-1-propyloxy]-2-chloro-3-methyl pyridine p-toluenesulfonic acid]	–	–	0.985	62
CC[C@@H](COc1cnc(Cl)c(C=Cc2ccncc2)c1)N(C)C [Example 20, 5-[(S)-2-N-dimethylamino-1-butyloxy]-2-chloro-3-(4-vinylpyridinyl) pyridine di-p-toluenesulfonic acid]	73 to 75	–	3.61	–
C[C@@H](N)COc1cnc(Cl)c(Br)c1.Cc1ccc(S(=O)(=O)O)cc1 [Example 32, 5-[(R)-2-amino-1-propyloxy]-2-chloro-3-bromo pyridine p-toluenesulfonic acid]	–	–	1.54	62
CC(COc1cnc(Cl)c(C=Cc2ccncc2)c1)N(C)C (single isomer, unassigned) [Example 39]	81 to 83	* (no effect at 62)	0.103	–
CC(COc1cnc(Cl)c(C=Cc2ccncc2)c1)N(C)C (single isomer, unassigned) [Example 14]	79 to 81	* (no effect at 62)	0.367	–
C[C@H](COc1ccc(F)nc1)N(C)C.Cc1ccc(S(=O)(=O)O)cc1 [Example 30, 5-[(R)-2-dimethylamino-1-propyloxy]-2-fluoro pyridine p-toluenesulfonic acid]	–	* (no effect at 62)	70.2	–
CN[C@H](C)COc1cnc(Cl)c(C)c1.Cc1ccc(S(=O)(=O)O)cc1 [Example 37, 5-[(R)-2-methylamino-1-propyloxy]-2-chloro-3-methyl pyridine p-toluenesulfonic acid]	–	* (no effect at 62)	0.565	–
CN[C@@H](C)COc1cnc(Cl)c(C)c1.Cc1ccc(S(=O)(=O)O)cc1 [Example 12, 5-[(S)-2-methylamino-1-propyloxy]-2-chloro-3-methyl pyridine p-toluenesulfonic acid]	–	–	5.47	62
C[C@H](N)COc1ccc(F)nc1.Cc1ccc(S(=O)(=O)O)cc1 [Example 4, 5-[(S)-2-amino-1-propyloxy]-2-fluoro pyridine p-toluenesulfonic acid]	–	–	8.69	6.2
Cc1cc(OC[C@H](C)N(C)C)cnc1Cl.Cc1ccc(S(=O)(=O)O)cc1 [Example 11, 5-[(S)-2-dimethylamino-1-propyloxy]-2-chloro-3-methyl pyridine p-toluenesulfonic acid]	–	* (no effect at 62)	9.6	–
CN[C@@H](C)COc1cnc(Cl)c(Br)c1.Cc1ccc(S(=O)(=O)O)cc1 [Example 9, 5-[(S)-2-methylamino-1-propyloxy]-2-chloro-3-bromo pyridine p-toluenesulfonic acid]	–	** (no effect at 6.2)	10.9	–
CN[C@H](C)COc1ccc(F)nc1.Cc1ccc(S(=O)(=O)O)cc1 [Example 31, 5-[(R)-2-methylamino-1-propyloxy]-2-fluoro pyridine p-toluenesulfonic acid]	–	–	11.4	62
CN[C@H](C)COc1ccc(Cl)nc1.Cc1ccc(S(=O)(=O)O)cc1 [Example 28, 5-[(R)-2-methylamino-1-propyloxy]-2-chloropyridine p-toluenesulfonic acid]	–	–	5.87	62
